Laboratory results from patent US20220153734A1, “Pyrazolopyridine Compounds For IRE1 Inhibition” (Optikira, LLC, priority 2019, published 2022).

Tests used:
IRE1α = molecular target: T1, IRE1α (Homo sapiens, UniProt O75460); assay: Biochemical assay: inhibition of RNase activity of IRE1α; conditions: enzyme 0.325 nM, substrate 100 nM, 20 minutes
T1 construct: purchased Signal Chem E31-11G
How it was run: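 RNase cleavage monitored as dequenching of a 5′ Alexa Fluor 647/3′ quencher RNA oligo (100 nM), stopped with 5 M urea after 20 min at room temperature. Enzyme 0.325 nM, preceded by 30 min compound pre-incubation; buffer Tris/MgCl2/KCl/DTT/Tween, 4% DMSO final. IC50 from curve fit of % inhibition.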

[1] = test system: ARPE-19 cells stably expressing XBP1 (a.a. 1-376); assay: Cellular XBP1 splicing assay (NanoLuc luciferase, thapsigargin); format: cell-based; conditions: thapsigargin 150 nM
How it was run: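 ARPE-19 cells carrying an XBP1(1-376)-NanoLuc splicing reporter were pretreated with compound (10-point ½-log series, 0.117% DMSO) for 30 min, then stressed with 150 nM thapsigargin for 4 h at 37° C. Luminescence was read, and IC50 values came from sigmoidal fits of percent inhibition of control.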

T1 sequence (O75460 468-977 limits assumed): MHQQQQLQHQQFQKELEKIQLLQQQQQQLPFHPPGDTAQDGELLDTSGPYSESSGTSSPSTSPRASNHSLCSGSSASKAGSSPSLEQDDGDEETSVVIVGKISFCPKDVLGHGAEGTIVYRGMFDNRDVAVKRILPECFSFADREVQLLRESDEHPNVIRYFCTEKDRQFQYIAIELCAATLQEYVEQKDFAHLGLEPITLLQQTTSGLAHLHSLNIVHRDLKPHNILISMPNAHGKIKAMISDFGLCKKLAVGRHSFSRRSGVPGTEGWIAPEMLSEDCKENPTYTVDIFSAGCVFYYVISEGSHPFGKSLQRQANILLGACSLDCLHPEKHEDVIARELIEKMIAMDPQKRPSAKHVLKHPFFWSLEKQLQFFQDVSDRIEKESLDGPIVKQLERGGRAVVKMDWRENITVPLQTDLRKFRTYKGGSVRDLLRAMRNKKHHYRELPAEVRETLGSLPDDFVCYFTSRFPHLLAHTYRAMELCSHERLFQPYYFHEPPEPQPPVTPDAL

| SMILES | IC50 (IRE1α) [nM] | IC50 ([1]; 4 hour) [nM] | IC50 ([1]; Homo sapiens, ARPE-19, 4 h) [nM] |
| --- | --- | --- | --- |
| COCCNC1CC=C(c2cnc(N)c3c(-c4ccc(NS(=O)(=O)c5ccccc5Cl)c(F)c4)nn(C(C)C)c23)CC1 (single isomer, unassigned) [Compound B52, N-(4-(4-amino-1-isopropyl-7-(4-((2-methoxyethyl)amino)cyclohex-1-en-1-yl)-1H-pyrazolo[4,3-c]pyridin-3-yl)-2-fluorophenyl)-2-chlorobenzenesulfonamide] | 7.8 | 9.8 |  |
| COCCNC1CC=C(c2cnc(N)c3c(-c4ccc(NS(=O)(=O)c5ccccc5Cl)c(F)c4)nn(C(C)C)c23)CC1 (single isomer, unassigned) [Compound B53, N-(4-(4-amino-1-isopropyl-7-(4-((2-methoxyethyl)amino)cyclohex-1-en-1-yl)-1H-pyrazolo[4,3-c]pyridin-3-yl)-2-fluorophenyl)-2-chlorobenzenesulfonamide] | 17 | 70 |  |
| COCCNC1CC=C(c2cnc(N)c3c(-c4ccc(NS(=O)(=O)Cc5ccccc5Cl)c(F)c4)nn(C(C)C)c23)CC1 (single isomer, unassigned) [Compound B54, N-(4-(4-amino-1-isopropyl-7-(4-((2-methoxyethyl)amino)cyclohex-1-en-1-yl)-1H-pyrazolo[4,3-c]pyridin-3-yl)-2-fluorophenyl)-1-(2-chlorophenyl)methanesulfonamide] | 2 | 28 |  |
| COCCNC1CC=C(c2cnc(N)c3c(-c4ccc(NS(=O)(=O)Cc5ccccc5Cl)c(F)c4)nn(C(C)C)c23)CC1 (single isomer, unassigned) [Compound B55, N-(4-(4-amino-1-isopropyl-7-(4-((2-methoxyethyl)amino)cyclohex-1-en-1-yl)-1H-pyrazolo[4,3-c]pyridin-3-yl)-2-fluorophenyl)-1-(2-chlorophenyl)methanesulfonamide] | 0.9 | 9 |  |
| CC(C)n1nc(-c2ccc(NS(=O)(=O)c3ccccc3F)c(F)c2)c2c(N)ncc(C3=CCC(NC4COC4)CC3)c21 (single isomer, unassigned) [Compound B58, N-(4-(4-amino-1-isopropyl-7-(4-(oxetan-3-ylamino)cyclohex-1-en-1-yl)-1H-pyrazolo[4,3-c]pyridin-3-yl)-2-fluorophenyl)-2-fluorobenzenesulfonamide] | 120 | 250 |  |
| CCn1nc(-c2ccc(NS(=O)(=O)c3ccccc3Cl)c(F)c2)c2c(N)ncc(C3=CCC(NC4COC4)CC3)c21 (single isomer, unassigned) [Compound B61, N-(4-(4-amino-1-ethyl-7-(4-(oxetan-3-ylamino)cyclohex-1-en-1-yl)-1H-pyrazolo[4,3-c]pyridin-3-yl)-2-fluorophenyl)-2-chlorobenzenesulfonamide] | 34 | 110 |  |
| CCn1nc(-c2ccc(NS(=O)(=O)c3ccccc3Cl)c(F)c2)c2c(N)ncc(C3=CCC(NC4COC4)CC3)c21 (single isomer, unassigned) [Compound B62, N-(4-(4-amino-1-ethyl-7-(4-(oxetan-3-ylamino)cyclohex-1-en-1-yl)-1H-pyrazolo[4,3-c]pyridin-3-yl)-2-fluorophenyl)-2-chlorobenzenesulfonamide] | 75 | 400 |  |
| COCCN[C@H]1CC[C@H](c2cnc(N)c3c(-c4cc(F)c(NS(=O)(=O)c5cc(OC)ccc5Cl)cc4F)nn(C(C)C)c32)CC1 [Compound A2, N-(4-(4-amino-1-isopropyl-7-((1r,4r)-4-((2-methoxyethyl)amino)cyclohexyl)-1H-pyrazolo[4,3-c]pyridin-3-yl)-2,5-difluorophenyl)-2-chloro-5-methoxybenzenesulfonamide] | 4.6 |  | 3 |
| CC(C)n1nc(-c2cc(F)c(NS(=O)(=O)c3ccccc3F)cc2F)c2c(N)ncc([C@H]3CC[C@H](N4CCOCC4)CC3)c21 [Compound A3] | 16 |  | 15 |
| COCCN[C@H]1CC[C@H](c2cnc(N)c3c(-c4cc(F)c(NS(=O)(=O)c5cc(Cl)ccc5F)cc4F)nn(C(C)C)c32)CC1 [Compound A4, N-(4-(4-amino-1-isopropyl-7-((1r,4r)-4-((2-methoxyethyl)amino)cyclohexyl)-1H-pyrazolo[4,3-c]pyridin-3-yl)-2,5-difluorophenyl)-5-chloro-2-fluorobenzenesulfonamide] | 1.3 |  | 10 |
| COCCN[C@H]1CC[C@H](c2cnc(N)c3c(-c4cc(F)c(NS(=O)(=O)c5cc(OC(F)F)ccc5F)cc4F)nn(C(C)C)c32)CC1 [Compound A5, N-(4-(4-amino-1-isopropyl-7-((1r,4r)-4-((2-methoxyethyl)amino)cyclohexyl)-1H-pyrazolo[4,3-c]pyridin-3-yl)-2,5-difluorophenyl)-5-(difluoromethoxy)-2-fluorobenzenesulfonamide] | 1.9 |  | 25 |
| COCCN[C@H]1CC[C@H](c2cnc(N)c3c(-c4ccc(NS(=O)(=O)c5ccccc5F)c(F)c4)nn(C(C)C)c32)CC1 [Compound A6, N-(4-(4-amino-1-isopropyl-7-((1r,4r)-4-((2-methoxyethyl)amino)cyclohexyl)-1H-pyrazolo[4,3-c]pyridin-3-yl)-2-fluorophenyl)-2-fluorobenzenesulfonamide] | 2.6 |  | 2.7 |
| COCCN[C@H]1CC[C@H](c2cnc(N)c3c(-c4cc(F)c(NS(=O)(=O)c5cccc(OC)c5F)cc4F)nn(C(C)C)c32)CC1 [Compound A7, N-(4-(4-amino-1-isopropyl-7-((1r,4r)-4-((2-methoxyethyl)amino)cyclohexyl)-1H-pyrazolo[4,3-c]pyridin-3-yl)-2,5-difluorophenyl)-2-fluoro-3-methoxybenzenesulfonamide] | 2.9 |  | 24 |
| CCOc1ccc(F)c(S(=O)(=O)Nc2cc(F)c(-c3nn(C(C)C)c4c3c(N)ncc4[C@H]3CC[C@H](NCCOC)CC3)cc2F)c1 [Compound A8, N-(4-(4-amino-1-isopropyl-7-((1r,4r)-4-((2-methoxyethyl)amino)cyclohexyl)-1H-pyrazolo[4,3-c]pyridin-3-yl)-2,5-difluorophenyl)-5-ethoxy-2-fluorobenzenesulfonamide] | 1.9 |  | 3.9 |
| COCCN[C@H]1CC[C@H](c2cnc(N)c3c(-c4cc(F)c(NS(=O)(=O)c5ccc(OC)cc5)cc4F)nn(C(C)C)c32)CC1 [Compound A9, N-(4-(4-amino-1-isopropyl-7-((1r,4r)-4-((2-methoxyethyl)amino)cyclohexyl)-1H-pyrazolo[4,3-c]pyridin-3-yl)-2,5-difluorophenyl)-4-methoxybenzenesulfonamide] | 20 |  | 110 |
| COCCN[C@H]1CC[C@H](c2cnc(N)c3c(-c4cc(F)c(NS(=O)(=O)c5ccccc5OC)cc4F)nn(C(C)C)c32)CC1 [Compound A10, N-(4-(4-amino-1-isopropyl-7-((1r,4r)-4-((2-methoxyethyl)amino)cyclohexyl)-1H-pyrazolo[4,3-c]pyridin-3-yl)-2,5-difluorophenyl)-2-methoxybenzenesulfonamide] | 240 |  | 19 |
| COCCN[C@H]1CC[C@H](c2cnc(N)c3c(-c4cc(F)c(NS(=O)(=O)c5cccc(OC)c5)cc4F)nn(C(C)C)c32)CC1 [Compound A11, N-(4-(4-amino-1-isopropyl-7-((1r,4r)-4-((2-methoxyethyl)amino)cyclohexyl)-1H-pyrazolo[4,3-c]pyridin-3-yl)-2,5-difluorophenyl)-3-methoxybenzenesulfonamide] | 8.9 |  | 15 |
| CC(C)n1nc(-c2ccc(NS(=O)(=O)c3ccccc3F)c(F)c2)c2c(N)ncc([C@H]3CC[C@@H](NC4COC4)CC3)c21 [Compound A12, N-(4-(4-amino-1-isopropyl-7-((1s,4s)-4-(oxetan-3-ylamino)cyclohexyl)-1H-pyrazolo[4,3-c]pyridin-3-yl)-2-fluorophenyl)-2-fluorobenzenesulfonamide] | 440 |  | 1400 |
| COCCN[C@H]1CC[C@H](c2cnc(N)c3c(-c4cc(F)c(NS(=O)(=O)c5ccc(F)c(OC)c5)cc4F)nn(C(C)C)c32)CC1 [Compound A13, N-(4-(4-amino-1-isopropyl-7-((1r,4r)-4-((2-methoxyethyl)amino)cyclohexyl)-1H-pyrazolo[4,3-c]pyridin-3-yl)-2,5-difluorophenyl)-4-fluoro-3-methoxybenzenesulfonamide] | 17 |  | 78 |
| COCCN[C@H]1CC[C@H](c2cnc(N)c3c(-c4cc(F)c(NS(=O)(=O)c5ccc(Cl)cc5)cc4F)nn(C(C)C)c32)CC1 [Compound A14, N-(4-(4-amino-1-isopropyl-7-((1r,4r)-4-((2-methoxyethyl)amino)cyclohexyl)-1H-pyrazolo[4,3-c]pyridin-3-yl)-2,5-difluorophenyl)-4-chlorobenzenesulfonamide] | 21 |  | 240 |
| COCCN[C@H]1CC[C@H](c2cnc(N)c3c(-c4cc(F)c(NS(=O)(=O)c5ccc(F)cc5Cl)cc4F)nn(C(C)C)c32)CC1 [Compound A15, N-(4-(4-amino-1-isopropyl-7-((1r,4r)-4-((2-methoxyethyl)amino)cyclohexyl)-1H-pyrazolo[4,3-c]pyridin-3-yl)-2,5-difluorophenyl)-2-chloro-4-fluorobenzenesulfonamide] | 6.6 |  | 13 |
| COCCN[C@H]1CC[C@H](c2cnc(N)c3c(-c4cc(F)c(NS(=O)(=O)c5ccc(Cl)cc5F)cc4F)nn(C(C)C)c32)CC1 [Compound A16, N-(4-(4-amino-1-isopropyl-7-((1r,4r)-4-((2-methoxyethyl)amino)cyclohexyl)-1H-pyrazolo[4,3-c]pyridin-3-yl)-2,5-difluorophenyl)-4-chloro-2-fluorobenzenesulfonamide] | 7.8 |  | 77 |
